Experiments:
Format in all cases: in vivo
Alopecurus myosuroides = test: Test Example 5: herbicidal effect by foliage application, plastic box (symbol J); settings: 320 g/ha, 3 weeks after application
In short: (§1)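 Herbicide, formulated as an emulsion and diluted in water, is sprayed onto the aerial parts of 14-day seedlings. These were grown at 25° C. to 30° C. in sterilized diluvial soil; effects are graded after 3 weeks.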

[1] = tested on: Echinochloa crus-galli var. crus-galli; test: Test Example 5: herbicidal effect by foliage application, plastic box (symbol H); settings: 320 g/ha, 3 weeks after application
In short: as §1

transplanted rice plant = test: Test Example 1: effect on crop, application before weed generation in submerged conditions (symbol a); settings: application herbicide amount 320 g/ha
In short: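 Rice at 2.5 leaf stage transplanted into submerged soil (4 cm depth) sown with three weed species; herbicide applied before weed emergence.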

corn [2] = test: Test Example 5: effect on crop by foliage application, plastic box (symbol c); settings: 320 g/ha, 3 weeks after application
In short: (§2)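 Box culture: sterile diluvial soil, seeds spot-sown, ~1.5 cm cover, raised under glass at 25–30° C.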

Cyperus difformis = test: Test Example 3: herbicidal effect by foliage application, Wagner pot (symbol E); settings: application herbicide amount 320 g/ha
In short: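 Post-emergence, paddy-type test: seedlings 14 d old in shallow-flooded (0.1–0.5 cm) alluvial soil, 25–30 °C greenhouse. Emulsion diluted to target rate, sprayed on leaves. Read-out: visual effect on each species at 3 weeks, per set criteria.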

Stellaria media = test: Test Example 4: herbicidal effect by soil treatment (symbol P); settings: application herbicide amount 320 g/ha
In short: (§3)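 Seeds were sown in sterilized diluvial soil, covered with about 1.5 cm of soil, and the soil surface was sprayed with a water-diluted emulsion of the compound at a predetermined rate. Plants grew in a greenhouse at 25° C. to 30° C.; effects were scored visually 3 weeks after application.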

soybean = test: Test Example 5: effect on crop by foliage application, plastic box (symbol d); settings: 320 g/ha, 3 weeks after application
In short: as §2

corn [3] = test: Test Example 4: effect on crop by soil treatment (symbol c); settings: application herbicide amount 320 g/ha
In short: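 Plants are raised in a greenhouse (25° C. to 30° C.) from spot-sown seed, which sits under about 1.5 cm of sterilized diluvial soil in a box shared with weed species.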

Apera spica-venti = test: Test Example 4: herbicidal effect by soil treatment (symbol L); settings: application herbicide amount 320 g/ha
In short: as §3

[4] = tested on: Echinochloa crus-galli var. crus-galli; test: Test Example 4: herbicidal effect by soil treatment (symbol H); settings: application herbicide amount 320 g/ha
In short: as §3

Abutilon theophrasti = test: Test Example 4: herbicidal effect by soil treatment (symbol M); settings: application herbicide amount 320 g/ha
In short: as §3

rice = test: Test Example 4: effect on crop by soil treatment (symbol b); settings: application herbicide amount 320 g/ha
In short: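 Soil-treatment setup: crop and weed seeds were spot-sown into sterilized diluvial soil, then buried beneath approximately 1.5 cm of it, and the boxes were housed in a 25–30° C. greenhouse.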

beet = test: Test Example 5: effect on crop by foliage application, plastic box (symbol f); settings: 320 g/ha, 3 weeks after application
In short: as §2

Scirpus juncoides = test: Test Example 2: herbicidal activity, application during weed generation in submerged conditions (symbol B); settings: Table 23; application herbicide amount 320 g/ha; grade 0-5 by criteria of Test Example 1
In short: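 Steps: fill pots with alluvial soil; add water to 4 cm depth; co-sow the three weeds; grow at 25° C. to 30° C. under glass; at 1–2 leaves, dose the floodwater with diluted emulsion; rate damage visually after 3 weeks.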

Structure (SMILES)	J: Alopecurus myosuroides, herbicidal effect grade (Alopecurus myosuroides)	H: Echinochloa crus-galli var. crus-galli, herbicidal effect grade [1]	Effect grade on crop, a: transplanted rice plant (transplanted rice plant)	c: corn, effect on crop grade (corn [2])	herbicidal effect on E, grade 0-5 (Cyperus difformis)	P: Stellaria media, herbicidal effect grade (Stellaria media)	d: soybean, effect on crop grade (soybean)	c: corn, effect on crop grade (corn [3])	L: Apera spica-venti, herbicidal effect grade (Apera spica-venti)	H: Echinochloa crus-galli var. crus-galli, herbicidal effect grade [4]	M: Abutilon theophrasti, herbicidal effect grade (Abutilon theophrasti)	b: directly sowed rice plant, effect on crop grade (rice)	f: beet, effect on crop grade (beet)	Herbicidal effect grade, B: Scirpus juncoides (Scirpus juncoides)
CON=C(C)CC1CC(O)=C(c2c(C)cc(C#CC3CC3)cc2C)C1=O (mixture of isomers) [6-010]	5 (Herbicidal ratio of 90% or more (almost completely withered))	5 (Herbicidal ratio of 90% or more (almost completely withered))	5 (Herbicidal ratio of 90% or more (almost completely withered))	4 (Herbicidal ratio of 70% or higher and lower than 90%)	5 (Herbicidal ratio of 90% or more (almost completely withered))	0 (Herbicidal ratio of 5% or lower (almost no effect))	3 (Herbicidal ratio of 40% or higher and lower than 70%)	4 (Herbicidal ratio of 70% or higher and lower than 90%)	5 (Herbicidal ratio of 90% or more (almost completely withered))	5 (Herbicidal ratio of 90% or more (almost completely withered))	3 (Herbicidal ratio of 40% or higher and lower than 70%)	5 (Herbicidal ratio of 90% or more (almost completely withered))	0 (Herbicidal ratio of 5% or lower (almost no effect))	3 (Herbicidal ratio of 40% or higher and lower than 70%)
CON=C(C)C1CC(O)=C(c2c(C)cc(C)cc2C)C1=O (mixture of isomers) [3-002]	0 (Herbicidal ratio of 5% or lower (almost no effect))	1 (Herbicidal ratio of 5% or higher and lower than 20%)	0 (Herbicidal ratio of 5% or lower (almost no effect))	0 (Herbicidal ratio of 5% or lower (almost no effect))	0 (Herbicidal ratio of 5% or lower (almost no effect))	0 (Herbicidal ratio of 5% or lower (almost no effect))	0 (Herbicidal ratio of 5% or lower (almost no effect))	0 (Herbicidal ratio of 5% or lower (almost no effect))	0 (Herbicidal ratio of 5% or lower (almost no effect))	0 (Herbicidal ratio of 5% or lower (almost no effect))	0 (Herbicidal ratio of 5% or lower (almost no effect))	0 (Herbicidal ratio of 5% or lower (almost no effect))	0 (Herbicidal ratio of 5% or lower (almost no effect))	0 (Herbicidal ratio of 5% or lower (almost no effect))
COCC(=O)CC1CC(O)=C(c2c(C)cc(C)cc2C)C1=O (stereo not drawn) [2-007]	4 (Herbicidal ratio of 70% or higher and lower than 90%)	1 (Herbicidal ratio of 5% or higher and lower than 20%)	4 (Herbicidal ratio of 70% or higher and lower than 90%)	1 (Herbicidal ratio of 5% or higher and lower than 20%)	5 (Herbicidal ratio of 90% or more (almost completely withered))	0 (Herbicidal ratio of 5% or lower (almost no effect))	0 (Herbicidal ratio of 5% or lower (almost no effect))	0 (Herbicidal ratio of 5% or lower (almost no effect))	3 (Herbicidal ratio of 40% or higher and lower than 70%)	5 (Herbicidal ratio of 90% or more (almost completely withered))	0 (Herbicidal ratio of 5% or lower (almost no effect))	5 (Herbicidal ratio of 90% or more (almost completely withered))	0 (Herbicidal ratio of 5% or lower (almost no effect))	0 (Herbicidal ratio of 5% or lower (almost no effect))
CCOC(=O)C(C(=O)C(F)(F)F)C1CC(O)=C(c2c(C)cc(C)cc2C)C1=O (stereo not drawn) [2-010]	0 (Herbicidal ratio of 5% or lower (almost no effect))	0 (Herbicidal ratio of 5% or lower (almost no effect))	0 (Herbicidal ratio of 5% or lower (almost no effect))	0 (Herbicidal ratio of 5% or lower (almost no effect))	0 (Herbicidal ratio of 5% or lower (almost no effect))	0 (Herbicidal ratio of 5% or lower (almost no effect))	0 (Herbicidal ratio of 5% or lower (almost no effect))	0 (Herbicidal ratio of 5% or lower (almost no effect))	0 (Herbicidal ratio of 5% or lower (almost no effect))	0 (Herbicidal ratio of 5% or lower (almost no effect))	0 (Herbicidal ratio of 5% or lower (almost no effect))	0 (Herbicidal ratio of 5% or lower (almost no effect))	0 (Herbicidal ratio of 5% or lower (almost no effect))	0 (Herbicidal ratio of 5% or lower (almost no effect))
CON=C(C)CC1CC(O)=C(c2c(C)cc(C#CCO)cc2C)C1=O (mixture of isomers) [6-025]	5 (Herbicidal ratio of 90% or more (almost completely withered))	5 (Herbicidal ratio of 90% or more (almost completely withered))	3 (Herbicidal ratio of 40% or higher and lower than 70%)	4 (Herbicidal ratio of 70% or higher and lower than 90%)	4 (Herbicidal ratio of 70% or higher and lower than 90%)	0 (Herbicidal ratio of 5% or lower (almost no effect))	0 (Herbicidal ratio of 5% or lower (almost no effect))	0 (Herbicidal ratio of 5% or lower (almost no effect))	4 (Herbicidal ratio of 70% or higher and lower than 90%)	0 (Herbicidal ratio of 5% or lower (almost no effect))	0 (Herbicidal ratio of 5% or lower (almost no effect))	5 (Herbicidal ratio of 90% or more (almost completely withered))	0 (Herbicidal ratio of 5% or lower (almost no effect))	0 (Herbicidal ratio of 5% or lower (almost no effect))
CCC(C)C(=O)CC1CC(O)=C(c2c(C)cc(C)cc2C)C1=O (stereo not drawn) [2-024]	4 (Herbicidal ratio of 70% or higher and lower than 90%)	5 (Herbicidal ratio of 90% or more (almost completely withered))	4 (Herbicidal ratio of 70% or higher and lower than 90%)	3 (Herbicidal ratio of 40% or higher and lower than 70%)	0 (Herbicidal ratio of 5% or lower (almost no effect))	0 (Herbicidal ratio of 5% or lower (almost no effect))	0 (Herbicidal ratio of 5% or lower (almost no effect))	0 (Herbicidal ratio of 5% or lower (almost no effect))	0 (Herbicidal ratio of 5% or lower (almost no effect))	4 (Herbicidal ratio of 70% or higher and lower than 90%)	0 (Herbicidal ratio of 5% or lower (almost no effect))	5 (Herbicidal ratio of 90% or more (almost completely withered))	0 (Herbicidal ratio of 5% or lower (almost no effect))	0 (Herbicidal ratio of 5% or lower (almost no effect))

Reference: US11000033B2, “Ketone or oxime compound, and herbicide” (NISSAN CHEMICAL CORPORATION, priority 2014, dated 2021)
